Measured values as given in patent publication US6358984B1, “2,4-dioxopyrrolidine and 2,4-dioxotetrahydrofuran derivatives and medicines containing the same as the active ingredient” (Lead Chemical Co., Ltd., priority 1996, dated 2002).
Like-named read-outs stand apart in the source and are kept apart here.

Key:
[1] = target: T1, angiotensin II receptor (Oryctolagus cuniculus, UniProt P34976); assay: Binding inhibition of 3H labeled angiotensin II to angiotensin II receptor membrane fraction; set-up: species or system rabbit; conditions: for IC50: rabbit adrenal gland membrane, 3H labeled angiotensin II 10^-9M, read-out: Receptor binding inhibition effect IC50
T1 construct: fraction of angiotensin II receptor membrane ([…]) prepared from rabbit adrenal gland; from tissue; host or cells: rabbit adrenal gland membrane fraction
T1 sequence (P34976 1-359): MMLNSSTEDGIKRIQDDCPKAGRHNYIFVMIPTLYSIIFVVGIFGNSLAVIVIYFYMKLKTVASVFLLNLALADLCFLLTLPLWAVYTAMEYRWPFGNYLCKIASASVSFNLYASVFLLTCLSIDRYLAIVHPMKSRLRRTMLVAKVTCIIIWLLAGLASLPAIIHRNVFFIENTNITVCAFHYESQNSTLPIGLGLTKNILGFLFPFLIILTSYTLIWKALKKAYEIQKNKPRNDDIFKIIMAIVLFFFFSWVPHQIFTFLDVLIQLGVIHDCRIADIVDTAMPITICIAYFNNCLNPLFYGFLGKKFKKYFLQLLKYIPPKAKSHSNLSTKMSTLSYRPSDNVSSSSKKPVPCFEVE
Procedure: The method of Cox et. al (Biochemical Pharmacology 33, 4057-4064 (1984) was modified to conduct angiotensin II receptor binding inhibition experiments. The present compounds (10^−5M to 10^−9M) and ^3H labeled angiotensin II (10^−9M) were added to a fraction of angiotensin II receptor membrane ([…]) prepared from rabbit adrenal gland and were allowed to react in a 20 mM Tris HCl buffer (pH: 7.0) containing 120 mM NaCl, 5 mM EDTA, 0.1 mM PMSF, and 0.2% BSA at 30° C. for 20 minutes so that the final volume was 540 μl. Then, the reaction mixture was quickly passed through a filter (whatman GF/B), and the filter was then rinsed three times in 4 ml of the buffer cooled in ice. Then, the radioactivity of receptor binding ^3H labeled angiotensin II captured on the filter was measured using a liquid scintillation counter. The angiotensin II receptor binding inhibition activity of the present compounds was evaluated based on the concentration (IC 50) required to replace 50% of the total amount of specifically binding ^3H labeled angiotensin II.

[2] = tested on: aortae of guinea pigs; assay: Inhibition of vascular contraction caused by angiotensin II using pieces of the aortae of guinea pigs; assay type: cell-based; conditions: Cavia porcellus; guinea pig chest aorta, contraction induced by angiotensin II; read-out: Vascular contraction inhibition effect IC50
Procedure: Male Hartly guinea pigs (350 to 400 g) were contused on the head and sacrificed by allowing their blood to discharge from the arteria carotis communis. Immediately after death, the chest aorta was removed. A spiral sample of width 2 to 3 mm and length 20 to 25 mm was cut from the aorta, and was suspended in 4.5 ml of Krebs-Henseleit (K-H) solution (120 mM NaCl, 4.7 mM KCl, […], 1.2 mM KH2PO4, 2.5 mM CaCl2, 25 mM NaHCO3, and 10 mM glucose) in a Magnus vessel. The K-H solution in the Magnus vessel was maintained at 37° C., and a mixture gas of 95% O2 and 5% CO2 was continuously bubbled through the solution. First, 1 g of initial tension was applied to the sample, which was then left to stand rest for about 30 minutes, and 45 μl of 4M KCl solution was added to the solution to induce contraction. After contraction had stabilized, a washing operation was performed to replace the K-H solution. Then, after the sample was left to stand for 30 minutes, 45 μl of solvent DMSO was added to incubate the sample for 15 minutes, and 45 μl of angiotensin II solution (3×10^−8M) was added to induce contraction. This operation was repeated three times and 100% contraction was used as the average. Subsequently, the sample was stabilized by washing. Then, a 45 μl sample of each test compound prepared for each concentration (3×10^−5M to 10^−7M) using DMSO as a solvent was used to observe the inhibition effect of angiotensin II on vascular contraction by performing the same operation as described above. The contraction reaction was recorded on a recorder (RTA-1100, Japan Photoelectronics) via an equi-scale pressure transducer (TB-651T, Japan Photoelectronics). The angiotensin II inhibition effects of the test compounds were evaluated using the IC50 value.

[3] = tested on: hypertension caused by angiotensin II; assay: Inhibition effect in the hypertension caused by angiotensin II using rats; assay type: in vivo, rat; conditions: Rattus norvegicus, iv, i. v., male SD rats, angiotensin II 100 ng/kg
Procedure: Male SD rats (age; 11 weeks; 310 to 330 g) Were used, and indwelling cannula were placed in the femoral aorta and the vena cava, under anesthesia with inactin. The arterial cannula was connected to a pressure transducer to record the blood pressure via a carrier amplifier (AP-601G Japan Photoelectronics) using a polygraph system (RM-6000 Japan Photoelectronics). Prior to tests using the test compounds, 100 ng/kg-equivalent angiotensin II (50 μl of serum solution from the rat) was administered using a regular-pulse cannula to check the hypertensive action. Then, 30 minutes later, a 1 mg/kg-equivalent test compound (50 μl of serum solution from the rat) was administered using the regular-pulse cannula, and similar administration of angiotensin II was performed 5 and 60 minutes later to check the corresponding hypertensive action. The hypertensive effect resulting from the administration of only angiotensin II was taken as a reference value of 100% to determine the antihypertensive rates of the test compounds.

[4] = tested on: male ICR mice; assay: Acute toxicity tests using male ICR mice; assay type: in vivo; conditions: 250, 500 and 1,000 mg/kg orally, dissected after 21 days
Procedure: Acute toxicity tests of the compounds 1d and 2d described in table 1 were carried out. […] As a result, in each administration group, no mouse died whichever compound had been administered.

[5] = 5 min, 5 minutes after administration, read-out: Inhibition effect in the hypertension by angiotensin II, 5 minutes after administration
[6] = 1 h, 60 minutes after administration, read-out: Inhibition effect in the hypertension by angiotensin II, 60 minutes after administration

Compound	IC50 [1] [nM]	IC50 [2] [nM]	inhibition in vivo at 1 mg/kg [3, 5] [%]	inhibition in vivo at 1 mg/kg [3, 6] [%]	melting point [°C]	Angiotensin II receptor antagonism (in words) [1]	Findings on dissection at the end of the observation period [4]
CCCc1nc(CCC)n(Cc2ccc(-c3ccccc3/C=C3\OC(=O)C=C3O)cc2)n1 [Compound 2a, 3,5-Dipropyl-1-[2′-[(4-hydroxy-2(5H)-furanone-5(Z)-ylidene)methyl]biphenyl-4-yl]methyl-1H-1,2,4-triazole]	110	16900	30 to 70	< 10	160 to 161		
CCCCc1nc(CCCC)n(Cc2ccc(-c3ccccc3/C=C3\OC(=O)C=C3O)cc2)n1 [Compound 2d]	46	4500	30 to 70	10 to 30		distinct angiotensin II receptor antagonism	no abnormality
CCCCc1nc(CCc2ccccc2)nn1Cc1ccc(-c2ccccc2/C=C2\OC(=O)C=C2O)cc1 [Compound 2f, 5-Butyl-3-(2-phenylethyl)-1-[2′-[(4-hydroxy-2(5H)-furanone-5(Z)-ylidene)methyl]biphenyl-4-yl]methyl-1H-1,2,4-triazole]	11	> 300000	30 to 70	< 10	184 to 185		
CCCCc1nc(C2CC2)nn1Cc1ccc(-c2ccccc2/C=C2\OC(=O)C=C2O)cc1 [Compound 2c, 5-Butyl-3-cyclopropyl-1-[2′-[(4-hydroxy-2(5H)-furanone-5(Z)-ylidene)methyl]biphenyl-4-yl]methyl-1H-1,2,4-triazole]	150	> 300000	10 to 30	< 10	168 to 170		
CCCCc1nc(CCCC)n(Cc2ccc(-c3ccccc3/C=C3\NC(=O)CC3=O)cc2)n1 [Compound 1d, 3,5-Dibutyl-1-[2′-[(2,4-dioxopyrrolidine-5(Z)-ylidene)methyl]biphenyl-4-yl]methyl-1H-1,2,4-triazole]	130	1400	≥ 70	30 to 70		distinct angiotensin II receptor antagonism	no abnormality
CCCCc1nc(-c2ccco2)nn1Cc1ccc(-c2ccccc2/C=C2\OC(=O)C=C2O)cc1 [Compound 2j, 5-Butyl-(furan-2-yl)-1-[2′-[(4-hydroxy-2(5H)-furanone-5(Z)-ylidene)methyl]biphenyl-4-yl]methyl-1H-1,2,4-triazole]	280	> 300000	< 10	< 10	172 to 173		
CCCCc1nc(CCc2ccccc2)nn1Cc1ccc(-c2ccccc2/C=C2\NC(=O)CC2=O)cc1 [Compound 1f, 5-Butyl-3-(2-phenylethyl)-1-[2′-[(2,4-dioxopyrrolidine-5(Z)-ylidene)methyl]biphenyl-4-yl]methyl-1H-1,2,4-triazole]	150	87900	30 to 70	30 to 70	188 to 189		
